{
  "source": "a melting point compilation (Tetko et al.; mined from patent text by program, amines drawn as free bases though some values may be those of a salt)",
  "data": [
    {"units": {"melting point": "°C"}, "values": [
      {"smiles": "C=CCC(c1ccc(C(O)(C(F)(F)F)C(F)(F)F)cc1)S(=O)(=O)c1ccccc1", "note": "(stereo not given)", "melting point": 148},
      {"smiles": "COc1ccnc(CCc2nc3cc(-c4ccc(S(=O)(=O)N5CCN(c6ccc(C)cc6C)CC5)cc4)cnc3[nH]2)c1", "melting point": "208 to 209"},
      {"smiles": "O=C(OCCc1ccc(OCc2ccc(Cl)cc2)cc1)c1cccnc1", "melting point": "109 to 110"},
      {"smiles": "O=C(NCCN1CCN(c2cccc3c2OCC(CO)O3)CC1)c1ccc(F)cc1", "note": "(stereo not given)", "melting point": "183 to 185"},
      {"smiles": "O=C(O)CCc1cc2cc(OC(F)(F)F)ccc2n1S(=O)(=O)c1ccccc1", "melting point": "138 to 146"},
      {"smiles": "COC(=O)c1ccc2c(ccn2C)c1", "melting point": "108 to 110"},
      {"smiles": "CC(CS(=O)(=O)c1ccc(Oc2ccc(Cl)cc2)cc1)N(O)C=O", "note": "(stereo not given)", "melting point": "144 to 145"},
      {"smiles": "CC1(C)COc2ccc(C[C@@H](NC(=O)c3cccc4c3C=CCCC4)[C@@H](O)c3cccc(Cl)c3)cc21", "note": "(racemic)", "melting point": "149 to 150"},
      {"smiles": "C#Cc1ccc(-c2ccc(-c3ccc(C#C)cc3)n2-c2ccc(C)cc2)cc1", "melting point": "235 to 237"},
      {"smiles": "CCCC(=O)Nc1c(Br)cc(C(=O)OCC)cc1CN(CC)CC", "melting point": 134},
      {"smiles": "COc1c(NC(=O)Nc2ccc(Oc3cc(C)nc(C)n3)c3ccccc23)cc(C(F)(F)F)cc1NS(C)(=O)=O", "melting point": "212 to 213"},
      {"smiles": "COc1cc(Cl)c2ncccc2c1", "melting point": "74 to 75"},
      {"smiles": "CCCCCCCc1cnc(N)s1", "melting point": "75 to 76"},
      {"smiles": "COc1ccc(-n2nc(O)c3[nH]c4cc(Cl)ccc4c(=O)c3c2=O)c(C)c1", "melting point": "354 to 356"},
      {"smiles": "N#Cc1c(Br)c(C(F)(F)F)n(COC(=O)C2CC2)c1-c1ccc(Cl)cc1", "melting point": "122 to 123"},
      {"smiles": "CC(C)(CO)CCS(N)(=O)=O", "melting point": "75 to 76"},
      {"smiles": "CC1(C)OC(C=Cc2ccc(Cl)cc2)=CC1=O", "melting point": "91 to 92"},
      {"smiles": "CCCCc1nc(S(C)=O)c(C(=O)O)n1Cc1ccc(-c2ccccc2C(=O)O)cc1", "note": "(stereo not given)", "melting point": 208},
      {"smiles": "Cc1cc(N)c(C)c(Cl)c1Oc1ccc(C(=O)c2ccc(Cl)cc2)cc1", "melting point": "113 to 122"},
      {"smiles": "COC(=O)C(Cl)C(C)=NNS(=O)(=O)c1ccc(C)cc1", "note": "(stereo not given)", "melting point": "97 to 101"},
      {"smiles": "CN1CCCN=C1C(Br)(Br)[N+](=O)[O-]", "melting point": "106 to 107"},
      {"smiles": "CC1=C(Nc2ccc(C3=NNC(=O)CC3C)cc2)CCC1=O", "note": "(stereo not given)", "melting point": "285 to 286"},
      {"smiles": "COCCCNc1cc(C(F)(F)F)ccc1N", "melting point": "69 to 70"},
      {"smiles": "N=C1SCCN1c1ccc(N)cc1[N+](=O)[O-]", "melting point": "138 to 139"},
      {"smiles": "O=C(c1ccccc1)c1ccc(F)c([N+](=O)[O-])c1", "melting point": 59},
      {"smiles": "CCC(c1ccc(NC(=O)Cc2ccccc2C)c([N+](=O)[O-])c1)n1ccnc1", "note": "(stereo not given)", "melting point": 122},
      {"smiles": "CCC1c2cccn2-c2ccccc2N1S(=O)(=O)c1ccc(OC)c(C)c1", "note": "(stereo not given)", "melting point": "124 to 126"},
      {"smiles": "CC(=NOCCO)c1cn(C)c(-c2ccccc2)n1", "melting point": "133 to 135"},
      {"smiles": "COC(=O)c1c2c(c3cc(OC)c(OC)c(OC)c3c1-c1cc(OC)c(OC)c(OC)c1)OCOC2=O", "melting point": "165 to 167"},
      {"smiles": "CCOCCn1cc(C2CCN(CCOc3ccccc3C(=O)O)CC2)c2cccnc21", "melting point": "137 to 140"},
      {"smiles": "Cn1nnnc1-c1cn(C)c2cc(Cl)ccc2c1=O", "melting point": "270 to 273"},
      {"smiles": "CC(=O)c1ccc(-n2c(-c3sc(NC(=O)c4ccc(C)cc4)nc3-c3ccccc3)nc3ccccc3c2=O)cc1", "melting point": "266 to 267"},
      {"smiles": "Cc1cc(Br)cc(C(=O)Nc2ccc(F)c(C)n2)n1", "melting point": 182},
      {"smiles": "CC(C)(C)c1ccc(C(=O)CCCCCC2CCCCC2)cc1NC(=O)CC1c2ccccc2Oc2ccccc21", "melting point": 134},
      {"smiles": "S=C(Cc1ccc(Cl)cc1)N1CCOCC1", "melting point": "175 to 177"},
      {"smiles": "CCCCNC(=S)N1CCc2[nH]cnc2C1CC", "note": "(stereo not given)", "melting point": 180},
      {"smiles": "COc1cc(F)ccc1-c1ccnc(NC(=O)[C@H]2CC[C@@H](NC(C)=O)C2)c1", "melting point": "125 to 129"},
      {"smiles": "COC(=O)[C@@H](Cc1ccccc1)Nc1cc(-c2ccc(OCc3ccccc3)cc2)ncn1", "melting point": 150},
      {"smiles": "COc1ccc(OC)c2c(C=O)c3ccccc3c(C=O)c12", "melting point": "208 to 212"},
      {"smiles": "CCCc1c(OCCCCCCc2cccc(OCCCC(C)(C)C(=O)O)c2CCC(=O)O)ccc2c1OCCC2=O", "melting point": "85 to 87"},
      {"smiles": "CCN(Cc1cc(Br)ccc1OCc1ccccc1)c1ncc(C(=O)NCc2nnn[nH]2)s1", "melting point": "232 to 236"},
      {"smiles": "O=c1[nH]c2c(Cl)cccc2c(=O)n1CCCN1CC2CCC(C1)N2c1ccc(Cl)cc1", "melting point": "167 to 169"},
      {"smiles": "CN(C(=O)Cc1ccccc1)c1nn(C)c(-c2ccc(F)cc2)c1-c1ccncc1", "melting point": "170 to 171"},
      {"smiles": "Oc1ccc(CN2CCCCC2)c2cccnc12", "melting point": 96},
      {"smiles": "CCCCCCCCCCCCc1c([N+](=O)[O-])ncn1C", "melting point": "56 to 59"},
      {"smiles": "O=C1Cc2cccc3c2N1CCC3", "melting point": "90 to 93"},
      {"smiles": "CC(C)C/C=C(\\C[C@H](N)C(=O)O)C(=O)O", "melting point": "190 to 199"},
      {"smiles": "COc1ccc(/C(=C/C=C/C(=O)Oc2ccc([N+](=O)[O-])cc2)c2ccccc2)cc1", "melting point": "113 to 115"},
      {"smiles": "O=C(CCc1ccccn1)Nc1cc(N2CC(c3ccccc3)OC2=O)ccn1", "note": "(stereo not given)", "melting point": "169 to 171"},
      {"smiles": "CCSc1cc(C)nc(SCC)c1NC(=O)CCCCCSc1nc2ccccc2[nH]1", "melting point": "139 to 142"},
      {"smiles": "O=C(NCCCCl)Nc1c(Cl)cccc1C(=O)O", "melting point": "124 to 125"},
      {"smiles": "COc1c(F)c(F)c(-c2c3ccccc3c(-c3ccccc3)c3ccccc23)c(F)c1F", "melting point": "153 to 154"},
      {"smiles": "COc1cc2ncnc(N3CCN(C(=O)NCc4cccnc4)CC3)c2cc1OC", "melting point": "188 to 189"},
      {"smiles": "Cc1c(C)c(C(=O)O)c(C)c(C)c1C(=O)O", "melting point": "> 300"},
      {"smiles": "Cc1cc2c(cc1C)C1(CO2)C(=O)N(Cc2ccccn2)c2ccccc21", "note": "(stereo not given)", "melting point": "165 to 168"},
      {"smiles": "CC(=O)C1(COC(=O)Oc2ccccc2)CC2C=CC1C2", "note": "(stereo not given)", "melting point": "76 to 77"},
      {"smiles": "COc1cc2c(cc1Nc1ncc(Cl)c(Nc3ccccc3C(=O)OC(C)C)n1)CCN(CCCN(C)C)C(=O)C2", "melting point": "63 to 90"},
      {"smiles": "Cc1oc(-c2ccccc2)nc1CCC(=O)O", "melting point": "124 to 125"},
      {"smiles": "CC(C)c1cc(Oc2c(Cl)cc(CP(=O)(O)O)cc2Cl)ccc1O", "melting point": "178 to 181"},
      {"smiles": "Cc1ccc(C)c(N2C(=O)CON(C)C2=S)c1", "melting point": "104 to 106"},
      {"smiles": "CN(c1cccc2cc(C3=NCC4(CCC5(CC4)OCCO5)S3)[nH]c12)S(=O)(=O)c1cccs1", "melting point": "224 to 225"},
      {"smiles": "COc1ccc(C(=O)Nc2ccccc2)cc1NC(=O)C(O)c1ccccc1", "note": "(stereo not given)", "melting point": "173 to 175"},
      {"smiles": "Cc1ccc(-c2ccc3c(c2)C=C(C(=O)N[C@H]2CC[C@H](CN(C)C4CCN(C(=O)OC(C)(C)C)CC4)CC2)CCO3)cc1", "melting point": "146 to 150"},
      {"smiles": "S=C(SSC(=S)c1ccccc1)c1ccccc1", "melting point": "89 to 91"},
      {"smiles": "CC(=O)N1C(=O)N(c2cc(Cl)cc(Cl)c2)C(=O)[C@]12CN(Cc1ccccc1)C[C@H]2c1ccc(C#N)cc1", "note": "(relative stereo)", "melting point": 224},
      {"smiles": "O=C(C=Cc1cccnc1)C=Cc1cccnc1", "melting point": "148 to 149"},
      {"smiles": "OC(CCN1CCC(c2ccc(F)cc2)CC1)c1ccc(Cc2ccc(Cl)cc2)cc1", "note": "(stereo not given)", "melting point": "94 to 95"},
      {"smiles": "CCC1C(=O)Oc2c(Oc3ccccc3C)cccc21", "note": "(stereo not given)", "melting point": "44 to 45"},
      {"smiles": "N#Cc1cc(F)cc(-c2cc(Br)c3c(c2)C2(CCCCC2)C(=O)N3)c1", "melting point": 217},
      {"smiles": "O=C(OCc1cc(-c2ccc(F)cc2F)ccc1O)c1cc(O)c2c(c1)C(=O)c1cccc(O)c1C2=O", "melting point": "128 to 132"}
    ]}
  ]
}
